Each structure is given as a SMILES string.

Assay [1] addresses 5-hydroxytryptamine receptor 1B (Homo sapiens, UniProt P28222). Kind of assay: Inhibition of 5-HT1B receptor (unknown origin) at 10 uM by PDSP assay relative to control.
Assay [2] deals with T1, 5-hydroxytryptamine receptor 2C (Homo sapiens) (UniProt P28335).
T1 sequence (whole entry): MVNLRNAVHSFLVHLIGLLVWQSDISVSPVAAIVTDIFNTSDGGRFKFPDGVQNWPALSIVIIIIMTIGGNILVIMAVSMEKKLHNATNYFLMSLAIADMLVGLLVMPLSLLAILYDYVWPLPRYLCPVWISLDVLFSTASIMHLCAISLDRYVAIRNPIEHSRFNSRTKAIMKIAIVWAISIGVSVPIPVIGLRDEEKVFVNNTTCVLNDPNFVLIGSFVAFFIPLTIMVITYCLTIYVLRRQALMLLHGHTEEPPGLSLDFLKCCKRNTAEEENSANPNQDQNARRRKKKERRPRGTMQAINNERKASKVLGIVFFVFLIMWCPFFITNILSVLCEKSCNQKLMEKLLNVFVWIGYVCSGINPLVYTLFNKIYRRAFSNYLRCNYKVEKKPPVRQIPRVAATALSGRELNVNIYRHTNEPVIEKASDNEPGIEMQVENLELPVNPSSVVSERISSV
Kind of assay: Inhibition of 5-HT2C receptor (unknown origin) at 10 uM by PDSP assay relative to control.

Assay [3] has as its target 5-hydroxytryptamine receptor 2B (Homo sapiens, UniProt P41595). Kind of assay: Inhibition of 5-HT2B receptor (unknown origin) at 10 uM by PDSP assay relative to control.
The target of assay [4] is Sigma non-opioid intracellular receptor 1 (Rattus norvegicus, UniProt Q9R0C9). Kind of assay: Displacement of [3H](+)-pentazocine from sigma-1 receptor in rat brain homogenates. The assay is classed as tissue-based. A general note: In a radioligand displacement assay an active substance lowers the binding of a labelled ligand.
Sigma non-opioid intracellular receptor 1, sequence (Q9R0C9 whole entry): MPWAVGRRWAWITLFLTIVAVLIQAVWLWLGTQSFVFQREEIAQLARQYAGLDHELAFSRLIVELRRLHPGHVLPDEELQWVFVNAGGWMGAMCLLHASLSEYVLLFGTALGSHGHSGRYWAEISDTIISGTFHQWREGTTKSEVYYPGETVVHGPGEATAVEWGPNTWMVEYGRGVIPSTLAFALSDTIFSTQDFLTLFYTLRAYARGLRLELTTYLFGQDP
Assay [5] has as its target T2, Alpha-1D adrenergic receptor (Homo sapiens) (UniProt P25100).
T2 sequence (whole entry): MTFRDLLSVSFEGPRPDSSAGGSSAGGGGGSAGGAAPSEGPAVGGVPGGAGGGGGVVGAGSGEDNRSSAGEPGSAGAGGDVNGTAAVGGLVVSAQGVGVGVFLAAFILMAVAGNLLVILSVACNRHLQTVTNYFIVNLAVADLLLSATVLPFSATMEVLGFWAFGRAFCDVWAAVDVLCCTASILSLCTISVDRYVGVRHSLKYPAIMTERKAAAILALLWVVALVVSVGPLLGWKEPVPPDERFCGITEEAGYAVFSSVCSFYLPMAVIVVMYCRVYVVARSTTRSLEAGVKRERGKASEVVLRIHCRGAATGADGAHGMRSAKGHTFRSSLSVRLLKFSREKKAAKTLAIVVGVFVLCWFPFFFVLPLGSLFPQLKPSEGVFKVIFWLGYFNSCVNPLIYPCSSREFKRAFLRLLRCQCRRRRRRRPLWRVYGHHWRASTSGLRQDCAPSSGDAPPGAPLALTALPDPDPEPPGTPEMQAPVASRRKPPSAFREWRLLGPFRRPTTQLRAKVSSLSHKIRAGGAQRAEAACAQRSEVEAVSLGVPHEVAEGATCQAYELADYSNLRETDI
Kind of assay: Inhibition of adrenergic alpha1D receptor (unknown origin) at 10 uM by PDSP assay relative to control.

Assay [6] concerns the target Beta-2 adrenergic receptor (Homo sapiens) (UniProt P07550). Kind of assay: Inhibition of adrenergic beta2 receptor (unknown origin) at 10 uM by PDSP assay relative to control.
Assay [7] concerns the target T3, D(4) dopamine receptor (Homo sapiens) (UniProt P21917).
T3 sequence (whole entry): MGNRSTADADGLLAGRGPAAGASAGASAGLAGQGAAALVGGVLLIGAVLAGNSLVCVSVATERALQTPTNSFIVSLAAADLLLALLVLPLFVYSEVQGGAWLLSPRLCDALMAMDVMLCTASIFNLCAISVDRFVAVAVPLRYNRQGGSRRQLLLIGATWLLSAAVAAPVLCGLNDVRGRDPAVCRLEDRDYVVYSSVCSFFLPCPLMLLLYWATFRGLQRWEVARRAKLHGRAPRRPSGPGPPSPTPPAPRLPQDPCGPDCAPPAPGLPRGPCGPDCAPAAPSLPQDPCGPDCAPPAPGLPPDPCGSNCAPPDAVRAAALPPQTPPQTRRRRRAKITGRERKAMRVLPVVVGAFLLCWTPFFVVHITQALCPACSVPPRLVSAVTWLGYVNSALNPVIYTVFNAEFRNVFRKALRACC
Kind of assay: Inhibition of dopamine D4 receptor (unknown origin) at 10 uM by PDSP assay relative to control.

The target in assay [8] is 5-hydroxytryptamine receptor 1D (Homo sapiens) (UniProt P28221). Kind of assay: Inhibition of 5-HT1D receptor (unknown origin) at 10 uM by PDSP assay relative to control.
5-hydroxytryptamine receptor 1D (Homo sapiens), sequence (P28221 whole entry): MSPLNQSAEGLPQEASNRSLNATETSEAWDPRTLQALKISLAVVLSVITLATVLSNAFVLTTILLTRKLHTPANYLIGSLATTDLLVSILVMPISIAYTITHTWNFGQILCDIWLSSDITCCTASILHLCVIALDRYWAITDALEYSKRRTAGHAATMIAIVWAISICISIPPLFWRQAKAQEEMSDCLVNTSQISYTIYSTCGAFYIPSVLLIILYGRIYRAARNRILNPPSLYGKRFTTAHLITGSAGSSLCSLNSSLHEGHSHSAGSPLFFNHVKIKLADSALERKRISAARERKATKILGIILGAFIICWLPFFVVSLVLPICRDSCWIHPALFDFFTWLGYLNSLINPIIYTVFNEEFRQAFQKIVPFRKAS
For assay [9], the target named is Beta-1 adrenergic receptor (Homo sapiens) (UniProt P08588). Kind of assay: Inhibition of adrenergic beta1 receptor (unknown origin) at 10 uM by PDSP assay relative to control.
Beta-1 adrenergic receptor (Homo sapiens), sequence (P08588 whole entry, looked up): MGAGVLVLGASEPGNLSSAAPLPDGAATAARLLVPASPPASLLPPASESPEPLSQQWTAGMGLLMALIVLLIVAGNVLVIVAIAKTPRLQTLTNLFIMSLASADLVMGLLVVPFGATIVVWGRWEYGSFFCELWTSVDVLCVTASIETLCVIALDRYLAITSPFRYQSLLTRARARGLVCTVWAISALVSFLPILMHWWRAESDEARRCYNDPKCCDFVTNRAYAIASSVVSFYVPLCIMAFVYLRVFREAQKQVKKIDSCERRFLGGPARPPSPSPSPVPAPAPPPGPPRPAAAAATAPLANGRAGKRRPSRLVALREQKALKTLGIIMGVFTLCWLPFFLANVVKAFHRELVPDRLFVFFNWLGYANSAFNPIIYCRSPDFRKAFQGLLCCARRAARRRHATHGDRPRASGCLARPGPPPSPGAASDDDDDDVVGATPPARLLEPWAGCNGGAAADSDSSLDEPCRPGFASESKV
For the next assay, the target named is Mu-type opioid receptor (Homo sapiens, UniProt P35372). Kind of assay: Inhibition of mu opioid receptor (unknown origin) at 10 uM by PDSP assay relative to control.
Mu-type opioid receptor, sequence (P35372 whole entry): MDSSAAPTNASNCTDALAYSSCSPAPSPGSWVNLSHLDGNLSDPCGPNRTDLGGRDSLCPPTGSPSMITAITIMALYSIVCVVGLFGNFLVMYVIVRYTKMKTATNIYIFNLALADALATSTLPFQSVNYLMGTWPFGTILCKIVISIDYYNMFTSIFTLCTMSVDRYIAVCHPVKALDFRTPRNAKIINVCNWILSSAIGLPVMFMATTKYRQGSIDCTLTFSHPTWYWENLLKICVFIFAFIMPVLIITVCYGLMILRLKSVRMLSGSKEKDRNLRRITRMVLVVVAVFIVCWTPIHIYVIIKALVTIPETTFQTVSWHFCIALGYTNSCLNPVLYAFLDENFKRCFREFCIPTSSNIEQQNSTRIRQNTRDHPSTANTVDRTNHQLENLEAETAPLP
Assay [10] is described as follows: Displacement of [3H]-DTG from sigma-2 receptor in rat PC12 cells. The class given is cell-based. The note with it: pc-12.
In assay [11] the target is 5-hydroxytryptamine receptor 6 (Homo sapiens, UniProt P50406). Kind of assay: Inhibition of 5-HT6 receptor (unknown origin) at 10 uM by PDSP assay relative to control.
5-hydroxytryptamine receptor 6, sequence (P50406 whole entry): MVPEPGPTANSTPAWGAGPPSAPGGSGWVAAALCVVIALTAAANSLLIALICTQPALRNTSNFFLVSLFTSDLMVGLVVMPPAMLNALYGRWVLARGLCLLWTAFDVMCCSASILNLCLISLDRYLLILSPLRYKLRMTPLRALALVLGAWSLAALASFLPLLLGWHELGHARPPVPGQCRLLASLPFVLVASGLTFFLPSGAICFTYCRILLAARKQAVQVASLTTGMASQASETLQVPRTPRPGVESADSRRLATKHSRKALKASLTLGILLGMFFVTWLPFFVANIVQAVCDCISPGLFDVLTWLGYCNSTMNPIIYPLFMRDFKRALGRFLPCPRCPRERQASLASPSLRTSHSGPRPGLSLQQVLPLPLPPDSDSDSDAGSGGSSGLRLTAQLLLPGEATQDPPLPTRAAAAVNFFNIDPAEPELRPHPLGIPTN
Assay [12] concerns the target Beta-3 adrenergic receptor (Homo sapiens) (UniProt P13945). Kind of assay: Inhibition of adrenergic beta3 receptor (unknown origin) at 10 uM by PDSP assay relative to control.
In assay [13] the target is 5-hydroxytryptamine receptor 7 (Homo sapiens, UniProt P34969). Kind of assay: Inhibition of 5-HT7 receptor (unknown origin) at 10 uM by PDSP assay relative to control.
5-hydroxytryptamine receptor 7, sequence (P34969 whole entry): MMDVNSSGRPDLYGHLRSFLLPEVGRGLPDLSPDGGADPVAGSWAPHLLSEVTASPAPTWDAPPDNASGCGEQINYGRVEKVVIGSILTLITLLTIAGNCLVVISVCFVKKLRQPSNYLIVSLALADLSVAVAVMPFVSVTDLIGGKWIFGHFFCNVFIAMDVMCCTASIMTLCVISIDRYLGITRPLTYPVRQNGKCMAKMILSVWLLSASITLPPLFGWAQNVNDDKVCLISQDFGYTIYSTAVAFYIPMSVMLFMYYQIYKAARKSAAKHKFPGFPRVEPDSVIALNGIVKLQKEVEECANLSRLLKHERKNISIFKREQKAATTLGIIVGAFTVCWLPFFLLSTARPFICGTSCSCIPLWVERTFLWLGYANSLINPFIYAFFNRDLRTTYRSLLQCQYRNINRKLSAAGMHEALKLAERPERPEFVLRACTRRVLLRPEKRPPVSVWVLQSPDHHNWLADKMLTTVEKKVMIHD
In assay [14] the target is T4, 5-hydroxytryptamine receptor 1A (Homo sapiens) (UniProt P08908).
T4 sequence (whole entry): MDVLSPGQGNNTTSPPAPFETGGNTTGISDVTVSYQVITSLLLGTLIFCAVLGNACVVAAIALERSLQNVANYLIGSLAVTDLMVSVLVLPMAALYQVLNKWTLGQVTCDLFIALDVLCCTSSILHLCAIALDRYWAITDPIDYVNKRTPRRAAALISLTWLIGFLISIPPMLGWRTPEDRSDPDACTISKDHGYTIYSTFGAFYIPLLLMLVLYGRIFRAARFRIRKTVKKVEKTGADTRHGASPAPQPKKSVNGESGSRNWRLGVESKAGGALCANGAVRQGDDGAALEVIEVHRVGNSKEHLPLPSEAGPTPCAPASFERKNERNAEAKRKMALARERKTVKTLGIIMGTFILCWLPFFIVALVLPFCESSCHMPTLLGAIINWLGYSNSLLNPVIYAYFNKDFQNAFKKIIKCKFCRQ
Kind of assay: Inhibition of 5-HT1A receptor (unknown origin) at 10 uM by PDSP assay relative to control.

In assay [15] the target is Sodium-dependent noradrenaline transporter (Homo sapiens, UniProt P23975). Kind of assay: Displacement of [3H]-nisoxetine from human NET expressed in HEK cell membranes at 10 uM relative to control. The settings on record: HEK293.
Sodium-dependent noradrenaline transporter, sequence (P23975 whole entry): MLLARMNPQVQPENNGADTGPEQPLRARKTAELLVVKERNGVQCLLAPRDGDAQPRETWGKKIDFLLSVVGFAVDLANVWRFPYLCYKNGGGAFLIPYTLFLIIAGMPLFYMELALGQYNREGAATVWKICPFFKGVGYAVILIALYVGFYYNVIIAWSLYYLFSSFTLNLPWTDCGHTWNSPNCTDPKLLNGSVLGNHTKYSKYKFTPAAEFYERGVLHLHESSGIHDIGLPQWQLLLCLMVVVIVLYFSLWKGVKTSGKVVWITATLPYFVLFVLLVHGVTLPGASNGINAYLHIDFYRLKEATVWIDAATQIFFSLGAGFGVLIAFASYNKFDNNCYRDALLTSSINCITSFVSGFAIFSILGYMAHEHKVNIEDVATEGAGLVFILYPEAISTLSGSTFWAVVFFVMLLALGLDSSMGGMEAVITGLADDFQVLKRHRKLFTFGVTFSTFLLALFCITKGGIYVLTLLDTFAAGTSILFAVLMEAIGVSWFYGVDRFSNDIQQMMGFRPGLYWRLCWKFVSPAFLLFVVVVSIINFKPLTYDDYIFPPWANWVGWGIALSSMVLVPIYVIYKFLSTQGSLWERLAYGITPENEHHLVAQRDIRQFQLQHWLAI

Beta-2 adrenergic receptor (Homo sapiens), sequence (P07550 whole entry, looked up): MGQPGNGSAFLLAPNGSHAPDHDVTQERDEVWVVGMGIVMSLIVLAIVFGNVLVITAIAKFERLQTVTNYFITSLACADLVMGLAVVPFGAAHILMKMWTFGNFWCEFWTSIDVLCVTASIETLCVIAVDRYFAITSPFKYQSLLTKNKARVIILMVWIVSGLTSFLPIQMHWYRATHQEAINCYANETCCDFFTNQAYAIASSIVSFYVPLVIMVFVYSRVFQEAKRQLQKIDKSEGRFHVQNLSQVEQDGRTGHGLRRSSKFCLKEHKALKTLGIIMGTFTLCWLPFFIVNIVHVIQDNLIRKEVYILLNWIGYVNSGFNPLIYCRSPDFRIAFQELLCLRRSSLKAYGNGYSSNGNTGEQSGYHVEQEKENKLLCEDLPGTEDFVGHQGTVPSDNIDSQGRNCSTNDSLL
Beta-3 adrenergic receptor (Homo sapiens), sequence (P13945 whole entry, looked up): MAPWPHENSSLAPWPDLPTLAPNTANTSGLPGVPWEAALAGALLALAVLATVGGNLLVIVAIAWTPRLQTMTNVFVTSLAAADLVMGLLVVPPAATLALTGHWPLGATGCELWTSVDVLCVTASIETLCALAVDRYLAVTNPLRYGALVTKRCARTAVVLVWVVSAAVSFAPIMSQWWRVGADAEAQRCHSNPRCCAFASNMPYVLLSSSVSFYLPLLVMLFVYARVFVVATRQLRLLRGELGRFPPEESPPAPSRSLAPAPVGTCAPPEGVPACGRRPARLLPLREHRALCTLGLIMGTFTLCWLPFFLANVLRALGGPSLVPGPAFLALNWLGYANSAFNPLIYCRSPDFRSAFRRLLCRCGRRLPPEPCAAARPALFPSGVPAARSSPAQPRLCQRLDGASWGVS
5-hydroxytryptamine receptor 1B, sequence (P28222 whole entry): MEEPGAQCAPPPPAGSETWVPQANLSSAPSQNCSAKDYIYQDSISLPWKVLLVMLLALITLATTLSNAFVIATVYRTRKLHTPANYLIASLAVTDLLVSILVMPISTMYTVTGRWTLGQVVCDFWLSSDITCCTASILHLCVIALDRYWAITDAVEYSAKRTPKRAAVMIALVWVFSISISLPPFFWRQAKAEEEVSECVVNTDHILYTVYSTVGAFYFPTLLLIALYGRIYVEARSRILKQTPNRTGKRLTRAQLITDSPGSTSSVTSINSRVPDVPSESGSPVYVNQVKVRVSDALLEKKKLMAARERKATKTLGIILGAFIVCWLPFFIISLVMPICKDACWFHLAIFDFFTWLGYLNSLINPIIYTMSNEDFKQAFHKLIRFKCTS
5-hydroxytryptamine receptor 2B, sequence (P41595 whole entry): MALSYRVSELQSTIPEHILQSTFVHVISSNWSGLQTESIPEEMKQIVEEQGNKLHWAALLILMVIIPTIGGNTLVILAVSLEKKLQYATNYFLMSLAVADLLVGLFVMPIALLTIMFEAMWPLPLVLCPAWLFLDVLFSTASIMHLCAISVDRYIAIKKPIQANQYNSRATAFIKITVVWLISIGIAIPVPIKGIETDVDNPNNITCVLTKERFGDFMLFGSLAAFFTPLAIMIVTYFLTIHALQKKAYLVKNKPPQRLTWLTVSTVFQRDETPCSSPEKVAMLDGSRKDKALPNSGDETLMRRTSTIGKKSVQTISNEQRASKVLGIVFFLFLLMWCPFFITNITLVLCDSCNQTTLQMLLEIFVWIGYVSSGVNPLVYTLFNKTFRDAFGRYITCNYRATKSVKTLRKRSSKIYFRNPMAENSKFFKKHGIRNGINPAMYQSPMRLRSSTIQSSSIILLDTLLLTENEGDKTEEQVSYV

On to `CN(CCCc1cccc(F)c1)[C@H]1C2C3CC4C2C(=O)C2C4C3C21` (some centres not stated), for which the inhibition in assay [1], in assay [2], in [3], in assay [5], in assay [6] and in [7] was under 50% each time. Further, the inhibition (in assay [8]; in assay [9]; against Mu-type opioid receptor; in assay [11]; in assay [12]; in assay [13]) was under 50% each time. In addition, the inhibition in [14] is under 50%. Also, the values for the Ki in assay [4] and in assay [10] were 133 nM and 30 nM, respectively.

As for `CN(CCc1ccccn1)[C@H]1C2C3CC4C5C3CC2C5C41` (some centres not stated), the inhibition in [1], in [2], in [3], in assay [5], in assay [6] and in [7] was under 50% each time. Also, the inhibition in [8], in assay [9], in assay [11], in assay [12], in [13] and in assay [14] was under 50% in each case. Besides, in assay [15], the inhibition was under 50%. The values for the Ki in [4] and in assay [10] were 448 nM and 32 nM, respectively.

With `c1ccc(CCN[C@H]2C3C4CC5C6C4CC3C6C52)nc1` (some centres not stated), the inhibition in assay [1], in assay [2], in assay [3], in assay [5], in assay [6] and in assay [8] was under 50% in each case. The inhibition (in assay [9]; on Mu-type opioid receptor; in assay [12]; in assay [13]; in assay [14]; in [15]) was under 50% throughout. Also, the Ki in [4] stood at 21.5 nM; in assay [10] it was 8.6 nM.

On to `COc1ccc(CN[C@H]2C3C4CC5C6C4CC3C6C52)cc1OC` (some centres not stated), for which the inhibition in [1], in [2], in assay [3], in assay [5], in assay [6] and in assay [7] was under 50% each time. Further, the inhibition (in assay [8]; in [9]; against Mu-type opioid receptor; in assay [12]; in assay [13]; in assay [14]) was under 50% in each case. This compound returned an inhibition in assay [15] of under 50%. Besides, the Ki in [4] was 94 nM; in [10] it was 25 nM.

Regarding `CN(CCc1ccccc1)[C@H]1C2C3CC4C5C3CC2C5C41` (some centres not stated), the inhibition in [1], in assay [2], in [5], in [6], in assay [7] and in assay [8] was under 50% throughout. The inhibition (in assay [9]; on Mu-type opioid receptor; in assay [11]; in [12]; in [14]; in [15]) was under 50% each time. The values for the Ki in assay [4] and in [10] were 773 nM and 16 nM, respectively.

Regarding `COc1cc(CN[C@H]2C3C4CC5C6C4CC3C6C52)cc(OC)c1OC` (some centres not stated), the inhibition in assay [1], in assay [2], in assay [5], in [6], in assay [7] and in assay [8] was under 50% throughout. Moreover, the inhibition (in [9]; against Mu-type opioid receptor; in assay [11]; in [12]; in [13]; in assay [14]) was under 50% throughout. In assay [15], this compound yielded an inhibition of under 50%. Besides, the Ki in assay [4] worked out at 1010 nM; in [10], 627 nM.

Consider `c1ccc(CCN[C@H]2C3C4CC5C6C4CC3C6C52)cc1` (some centres not stated), for which the inhibition in assay [2], in [3], in assay [5], in assay [6], in assay [8] and in assay [9] was under 50% each time. Also, the inhibition (on Mu-type opioid receptor; in [11]; in assay [12]; in assay [13]; in assay [14]; in assay [15]) was under 50% in each case. In addition, the Ki is 49 nM in assay [4] and 9.3 nM in assay [10].

Consider `CN(Cc1cccc(F)c1)[C@H]1C2C3CC4C2C(=O)C2C4C3C21` (some centres not stated), for which the inhibition in assay [1], in assay [2], in assay [3], in [5], in [6] and in [7] was under 50% each time. For the same compound, the inhibition (in [8]; in [9]; at Mu-type opioid receptor; in assay [11]; in assay [12]; in [13]) was under 50% throughout. Also, the inhibition in [15] is under 50%. The results for the Ki in assay [4] and in assay [10] were 303 nM and 168 nM, respectively.

The inhibition is the percentage by which the read-out fell short of the control. A high value points to strong suppression. Usually Ki stands for a dissociation constant, usually derived from enzyme kinetics or from competition with a known ligand.

For the origin of these results see ChEMBL document CHEMBL2429832, “N-substituted 8-aminopentacyclo[5.4.0.0(2,6).0(3,10).0(5,9)]undecanes as σ receptor ligands with potential neuroprotective effects” (Bioorg Med Chem, 2013).
